Assay results as given in PMC7354631 (Toxins, 2020).
Where two headings read alike, the source gives them in different places. Marks after values point to notes of the source that are not given here.

Legend:
[1] = target: T1, human serum albumin (HSA) (Homo sapiens, UniProt P02768); conditions: cited from earlier work
[2] = target: T1, human serum albumin (HSA); test: biochemical; type: binding
[3] = target: Sudlow’s site I of human serum albumin (HSA) (Homo sapiens, UniProt P02768); type: binding; conditions: for warfarin concentration in the filtrate (displacement from site I): pH 7.4
Sequence of Sudlow’s site I of human serum albumin (HSA) (P02768 25-609): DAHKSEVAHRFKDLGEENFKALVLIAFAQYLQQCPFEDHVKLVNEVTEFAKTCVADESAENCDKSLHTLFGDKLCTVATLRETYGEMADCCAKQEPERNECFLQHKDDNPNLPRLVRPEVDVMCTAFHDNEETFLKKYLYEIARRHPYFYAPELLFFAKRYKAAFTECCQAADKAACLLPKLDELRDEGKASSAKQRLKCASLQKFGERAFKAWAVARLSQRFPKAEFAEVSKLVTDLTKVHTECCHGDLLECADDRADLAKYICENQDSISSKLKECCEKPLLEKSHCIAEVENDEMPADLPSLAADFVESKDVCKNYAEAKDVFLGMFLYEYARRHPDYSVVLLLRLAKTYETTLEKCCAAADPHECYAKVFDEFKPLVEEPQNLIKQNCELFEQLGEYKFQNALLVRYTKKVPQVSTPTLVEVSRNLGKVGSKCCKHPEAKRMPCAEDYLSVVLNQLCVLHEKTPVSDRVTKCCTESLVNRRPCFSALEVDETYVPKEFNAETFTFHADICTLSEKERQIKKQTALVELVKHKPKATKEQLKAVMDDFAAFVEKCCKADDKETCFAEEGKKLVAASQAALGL

[4] = target: T1, human serum albumin (HSA); type: binding
[5] = tested on: Sudlow’s site II of human serum albumin (HSA); conditions: cited from earlier work
bovine serum albumin = conditions: cited from earlier work
[6] = target: T1, human serum albumin (HSA); test: biochemical; type: binding; remark: listed apart in the source
[7] = target: T1, human serum albumin (HSA); type: binding; remark: listed apart in the source
[8] = Ka (±SEM) (Hyperquad, Figure 3)
[9] = association constant of ochratoxin–HSA complex (approximate, summary)

T1 sequence (P02768 25-609): as above

Cc1cc(O)cc2oc(=O)c3c(O)cc(O)cc3c12 [alternariol, reference compound]
Ka of the complex with HSA [1]: 400000 L/mol

CC(=O)OC[C@]12C[C@H](OC(=O)CC(C)C)C(C)=C[C@H]1O[C@@H]1[C@H](O)[C@@H](OC(C)=O)[C@@]2(C)[C@]12CO2 [T2, T-2 toxin]
effect on the fluorescence emission of HSA [2]: did not modify | effect of 10% FBS on the mycotoxin-induced viability loss / toxic effect (HepG2 cells): did not affect | effect of 40 g/L HSA on the toxic effect of the mycotoxin (HepG2 cells): did not affect | relative cytotoxicity (HepG2 cells): considerably higher compared to PAT or DON | warfarin concentration in the filtrate (displacement from site I) [3]: did not alter | difference of far-UV CD curves of free HSA and HSA+toxin (secondary structure) [4]: no significant difference | modification of the near-UV CD spectrum of HSA (245–340 nm) [4]: unambiguous and relevant spectral modifications could not be registered

O=c1cc(-c2ccccc2)oc2cc(O)cc(O)c12 [chrysin]
displacement of naproxen from HSA [5]: statistically significant displacement

CC1=C[C@H]2O[C@@H]3[C@H](O)C[C@](C)([C@@]2(CO)[C@H](O)C1=O)[C@]31CO1 [DON, Deoxynivalenol]
effect on the fluorescence emission of HSA [2]: did not modify | effect of 10% FBS on the mycotoxin-induced viability loss / toxic effect (HepG2 cells): did not affect | effect of 40 g/L HSA on the toxic effect of the mycotoxin (HepG2 cells): did not affect | warfarin concentration in the filtrate (displacement from site I) [3]: did not alter | spectral position of the n–π* CD band in protein-free buffer vs. high molar excess of HSA ([4]; pH 7.4): practically the same | association constant of the complex with HSA [1]: ~46000 L/mol | quenching effect on HSA [1]: strong quenching effect

O=c1cc(-c2ccccc2)oc2c(O)c(O)ccc12 [7,8-dihydroxyflavone]
displacement of naproxen from HSA [5]: statistically significant displacement

O=C1C=C2C(=CCOC2O)O1 (centres unmarked) [PAT, Patulin]
Kd [2]: 72500 nM | effect on the fluorescence emission of HSA [2]: slightly decreased | KSV (Stern–Volmer quenching constant) ([2]; pH 7.4): 8.23 × 10^3 (±1.12 × 10^3) L/mol | effect of 10% FBS on the mycotoxin-induced viability loss / toxic effect (HepG2 cells): did not affect | effect of 40 g/L HSA on the toxic effect of the mycotoxin (HepG2 cells): did not affect | interaction with bovine serum albumin (bovine serum albumin): weak interaction | warfarin concentration in the filtrate (displacement from site I) [3]: did not alter | induced CD features on HSA binding [4]: no induced CD features were observed | UV spectral changes in the presence of HSA ([4]; pH 7.4): some UV spectral changes could be noticed | KSV of the complex with HSA [1]: 14000 L/mol

C[C@@H]1Cc2ccc(C(=O)N[C@@H](Cc3ccccc3)C(=O)O)c(O)c2C(=O)O1 [OTB, ochratoxin B]
effect on the emission signal of HSA at 340 nm [2]: decreased | KSV (±SEM) (Stern–Volmer Plot, Figure 2) ([2]; pH 7.4): 0.57 ± 0.05 ×10^6 L/mol | effect of 10% FBS on the mycotoxin-induced viability loss / toxic effect (HepG2 cells): significantly reduced | effect of the mycotoxin on cellular ATP levels in the presence of 40 g/L HSA (HepG2 cells): did not affect | relative cytotoxicity (HepG2 cells): considerably lower toxicity than OTC | HSA concentration enough to achieve complete albumin binding [6]: 5 to 7 µM | emission signal of the ochratoxin with elevation of HSA concentration [6]: significantly increased | Kd [6, 8]: 725 nM | Kd [6, 9]: ~1000 nM | location of the high-affinity binding site on HSA [3]: subdomain IIA | warfarin concentration in the filtrate (displacement from site I) [3]: significantly increased | fluorescence anisotropy in the presence of HSA [7]: strongly increased

CC1=C2C(=CO[C@H](C)[C@H]2C)C(O)=C(C(=O)O)C1=O [citrinin, reference compound]
Ka of the complex with HSA [1]: 200000 L/mol

CCOC(=O)[C@H](Cc1ccccc1)NC(=O)c1cc(Cl)c2c(c1O)C(=O)O[C@H](C)C2 [OTC, ochratoxin C]
effect on the emission signal of HSA at 340 nm [2]: decreased | KSV (±SEM) (Stern–Volmer Plot, Figure 2) ([2]; pH 7.4): 0.46 ± 0.06 ×10^6 L/mol | effect of 10% FBS on the mycotoxin-induced viability loss / toxic effect (HepG2 cells): abolished | effect of the mycotoxin on cellular ATP levels in the presence of 40 g/L HSA (HepG2 cells): did not affect | HSA concentration enough to achieve complete albumin binding [6]: 2 to 3 µM | emission signal of the ochratoxin with elevation of HSA concentration [6]: significantly increased | Kd [6, 8]: 62.4 nM | Kd [6, 9]: ~100 nM | location of the high-affinity binding site on HSA [3]: subdomain IIA | warfarin concentration in the filtrate (displacement from site I) [3]: significantly increased | fluorescence anisotropy in the presence of HSA [7]: strongly increased

O=c1cc(-c2ccccc2)oc2cc(OS(=O)(=O)O)cc(O)c12 [chrysin-7-sulfate]
displacement of naproxen from HSA [5]: statistically significant displacement

C[C@H]1CCCC(=O)CCC/C=C/c2cc(O)cc(O)c2C(=O)O1 [zearalenone, reference compound]
Ka of the complex with HSA [1]: 120000 L/mol
